Data on two molecules can be found in article PMC10134573 (Biochemistry, 2022).

A word on the IC50: it is the concentration that inhibits the measured activity by half. Read a high IC50 as lower potency. The term stoichiometry N denotes the number of molecules, sites or subunits per partner or assembly.

For one series, the target named is T1, CheA WT (Tm CheA) (Thermotoga maritima, UniProt Q56310).
T1 sequence (Q56310 1-671): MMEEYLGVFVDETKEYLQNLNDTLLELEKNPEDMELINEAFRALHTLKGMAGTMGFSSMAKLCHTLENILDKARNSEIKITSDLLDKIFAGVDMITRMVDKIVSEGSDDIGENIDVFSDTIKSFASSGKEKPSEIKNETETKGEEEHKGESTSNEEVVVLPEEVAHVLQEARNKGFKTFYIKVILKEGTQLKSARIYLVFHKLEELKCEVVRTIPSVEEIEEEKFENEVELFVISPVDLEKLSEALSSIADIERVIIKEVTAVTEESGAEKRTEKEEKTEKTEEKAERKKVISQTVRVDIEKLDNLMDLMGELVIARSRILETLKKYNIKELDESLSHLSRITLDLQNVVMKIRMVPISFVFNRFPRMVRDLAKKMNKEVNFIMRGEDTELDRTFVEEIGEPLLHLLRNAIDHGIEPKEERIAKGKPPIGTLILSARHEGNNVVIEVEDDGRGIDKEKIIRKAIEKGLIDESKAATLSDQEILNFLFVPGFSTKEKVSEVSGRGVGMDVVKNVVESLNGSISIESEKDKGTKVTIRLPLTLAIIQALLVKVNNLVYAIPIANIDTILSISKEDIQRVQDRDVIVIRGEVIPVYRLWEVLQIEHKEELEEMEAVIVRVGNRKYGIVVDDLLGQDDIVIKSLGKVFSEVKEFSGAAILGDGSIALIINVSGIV
In words: TNP-ATP displacement, fluorescence. It is filed as binding.

The series “SEC + other: SAXS” deals with the molecule itself. The series can be described thus: SEC + other: SAXS.

The molecule `Nc1ncnc2c1ncn2[C@@H]1O[C@H](COP(=O)(O)OP(=O)(O)O)[C@@H](O)[C@H]1O` [ADP] returned an IC50 at CheA WT (Tm CheA) of 405 ± 21 µM.

B1: Thermotoga maritima CheA WT (enzyme, UniProt Q56310 1-671, looked up)
chain: MMEEYLGVFVDETKEYLQNLNDTLLELEKNPEDMELINEAFRALHTLKGMAGTMGFSSMAKLCHTLENILDKARNSEIKITSDLLDKIFAGVDMITRMVDKIVSEGSDDIGENIDVFSDTIKSFASSGKEKPSEIKNETETKGEEEHKGESTSNEEVVVLPEEVAHVLQEARNKGFKTFYIKVILKEGTQLKSARIYLVFHKLEELKCEVVRTIPSVEEIEEEKFENEVELFVISPVDLEKLSEALSSIADIERVIIKEVTAVTEESGAEKRTEKEEKTEKTEEKAERKKVISQTVRVDIEKLDNLMDLMGELVIARSRILETLKKYNIKELDESLSHLSRITLDLQNVVMKIRMVPISFVFNRFPRMVRDLAKKMNKEVNFIMRGEDTELDRTFVEEIGEPLLHLLRNAIDHGIEPKEERIAKGKPPIGTLILSARHEGNNVVIEVEDDGRGIDKEKIIRKAIEKGLIDESKAATLSDQEILNFLFVPGFSTKEKVSEVSGRGVGMDVVKNVVESLNGSISIESEKDKGTKVTIRLPLTLAIIQALLVKVNNLVYAIPIANIDTILSISKEDIQRVQDRDVIVIRGEVIPVYRLWEVLQIEHKEELEEMEAVIVRVGNRKYGIVVDDLLGQDDIVIKSLGKVFSEVKEFSGAAILGDGSIALIINVSGIV
In the case of B1, the “stoichiometry N” value in the series “SEC + other: SAXS” was 2.
